Where a SMILES comes first, the peptide text is derived from it. [ ]: non-standard residue; d: D form. Orn = NCCC[CH](N)C(=O)O

Broadly, the logP is a log measure of how a compound divides between an organic and an aqueous phase. High values mean a more lipophilic compound, low ones a more hydrophilic compound.

Compound `CC(C)CC(C)CC(C)OC(=O)c1ccc(NC(=O)N(C)C)cc1Cl` (centres undefined) came in with a log partition coefficient (logP) of 5.15.

In turn, `NC(=O)c1cc(-c2ccccc2)nnc1NCCN1CCOCC1` yielded a logP of 1.86.

With `O=C(O)C(Cc1ccc(F)cc1)n1cccc1` (centres undefined), the log partition coefficient (logP) was 2.04.

In turn, `CCC1CC(C(=O)NC(C(C)O)C2OC(SC)C(O)C(O)C2O)N(C)C1` (centres undefined) returned a log partition coefficient (logP) of -0.4.

On to `CCCCNC(=O)C1(O)C(C)CC2C3CCC4=CC(=O)C=CC4(C)C3(F)C(O)CC21C` (centres undefined), for which the lipophilicity (logP) amounted to 3.1.

The compound `CC1(C)CCCC(C)(C)N1[O]` registered a log partition coefficient (logP) of 1.85.

The compound `CCCCCCCOc1cccc(NC(=O)OCCN2CCOCC2)c1` gave a logP of 5.28.

With `C#CCOc1c(Cl)cc(NC=NOc2ccccc2)cc1Cl`, the lipophilicity (logP) is 4.4.

`Cc1ccccc1C(=O)OCC1CCC(n2cnc3c(=O)[nH]cnc32)O1` (centres undefined) had a lipophilicity (logP) of 1.02.

The compound `CC(C)(C)C(=O)OCOC(=O)C1=C(CSc2nncs2)CSC2C(NC(=O)Cn3cnnn3)C(=O)N12` (centres undefined) came in with a logP of 1.45.

Consider `CC1CC2C3CCC4=CC(=O)C=CC4(C)C3(F)C(O)CC2(C)C1(O)C(=O)NCCc1ccccc1` (centres undefined), for which the logP was determined as 3.66.

`CCCCC(=O)OCCOCn1cnc2c(=O)[nH]c(N)nc21` came in with a logP of 0.37.

`c1ccc(SCc2ccc(CCCN3CCOCC3)cc2)cc1` returned a logP of 3.62.

In turn, `Cc1ncc([N+](=O)[O-])n1CCOC(=O)N(C)C` gave a logP of 0.47.

`Cc1ccc(CN2CCNC2=C[N+](=O)[O-])cn1` yielded a logP of -0.59.

The compound `COc1ccc2cc(C(C)C(=O)OCC(=O)N(C)C)ccc2c1` (centres undefined) came in with a logP of 2.05.

`CCN1CC(C(O)C(CC2CCCCC2)NC(=O)C(Cc2c[nH]cn2)NC(=O)C(Cc2ccc(OC)cc2)NC(=O)C(C)C)OC1=O` (centres undefined) came in with a logP of 2.85.

Take `CC1=C(N2CC2)C(=O)C(Br)=C(N2CC2)C1=O`: the logP is 1.36.

With `CCCCC(C#N)(Cn1cncn1)c1ccc(Cl)cc1` (centres undefined), the logP was 2.94.

As to `Clc1ccc(Cl)c(-c2ccc(Cl)c(Cl)c2Cl)c1`, the logP is 6.85.

The compound `Oc1c(I)cc(I)cc1I` gave a logP of 4.5.

Consider `CC(=O)N[C@@H](Cc1c[nH]c2ccccc12)C(=O)N[C@@H](C)C(=O)N[C@@H](C)C(N)=O` (Ac-Trp-Ala-Ala-NH2), for which the logP was -0.38.

The compound `O=C(NCCCOc1cccc(CN2CCCCC2)c1)c1ccccc1` registered a log partition coefficient (logP) of 3.97.

With `CCCCOC(=O)NCCn1c([N+](=O)[O-])cnc1C`, the logP stood at 1.22.

Regarding `CN(C)N=Nc1ccc([N+](=O)[O-])cc1`, the logP is 3.25.

`CSC(=O)c1c(C(F)F)nc(C(F)(F)F)c(C(=O)SC)c1CC(C)C` showed a log partition coefficient (logP) of 4.75.

Regarding `Cc1cn(C2CC(N=[N+]=[N-])C(COC(=O)CNC(=O)C34CC5CC(CC(C5)C3)C4)O2)c(=O)[nH]c1=O` (centres undefined), the logP was 2.1.

With `CN(CO)c1nc(N(C)CO)nc(N(C)CO)n1`, the logP worked out at 0.4.

Turning to `CC(=O)NC(CCCN)C(=O)NC(CC(C)C)C(N)=O` (centres undefined) (Ac-[Orn]-Leu-NH2; configuration not given here), the log partition coefficient (logP) is -0.71.

`Cc1nc([N+](=O)[O-])c(C)[nH]1` came in with a logP of 0.43.

In turn, `CC(C1CC1)C(O)(Cn1cncn1)c1ccc(Cl)cc1` (centres undefined) yielded a log partition coefficient (logP) of 2.9.

For the compound `CCOc1ccc(NC(=O)OCCN2CCOCC2)cc1`, the lipophilicity (logP) came out at 2.18.

The compound `Clc1ccc(-c2cc(Cl)c(Cl)c(Cl)c2Cl)cc1Cl` displayed a log partition coefficient (logP) of 7.6.

Compound `CCOc1ccc(C2(C(=O)OC)CC2(Cl)Cl)cc1` (centres undefined) came in with a logP of 4.1.

`CC1(C)SC2C(NC(=O)c3c(-c4c(F)cccc4Cl)noc3CO)C(=O)N2C1C(=O)O` (centres undefined) displayed a logP of 2.23.

`Clc1ccc(Cl)c(-c2cccc(Cl)c2Cl)c1` came in with a logP of 5.81.

For the compound `Oc1ccc(F)c2cccnc12`, the logP was 2.3.

`C=C1CCC2C(C1)c1c(OC)cc(CCC)cc1OC2(C)C` (centres undefined) registered a lipophilicity (logP) of 6.26.

In turn, `c1nnn(C23CC4CC(CC(C4)C2)C3)n1` displayed a logP of 2.95.

In turn, `Nc1nc(NCCO)c(Cl)nc1[N+](=O)[O-]` showed a logP of 0.12.

With `CCC(=O)C(CS(=O)(=O)c1ccccc1)c1ccccc1` (centres undefined), the logP is 1.82.

The compound `COCCCNC(=O)C(F)(F)Cn1cnc([N+](=O)[O-])n1` displayed a lipophilicity (logP) of 0.01.

Turning to `O=C(NN1CCCCC1)NS(=O)(=O)c1ccc(Cl)cc1`, the logP is 0.84.

`C(=C\c1ccccc1)/CN1CCN(C(c2ccccc2)c2ccccc2)CC1` displayed a lipophilicity (logP) of 5.77.

`Cc1ccc(C2(Cn3cncn3)OCCO2)cc1` yielded a logP of 1.55.

In turn, `Clc1cc(Cl)cc(-c2cccc(Cl)c2Cl)c1` came in with a logP of 6.17.

In the case of `CCCOc1ccc(NC(=O)OCCN2CCOCC2)cc1`, the log partition coefficient (logP) is 2.78.

Compound `CCNC(=O)c1cccc2c1C(=O)C(=O)N(CC)C2=O` came in with a logP of 0.3.

With `O=NN(CCCl)C(=O)NC1CCCCC1C(=O)O` (centres undefined), the lipophilicity (logP) was found to be 2.01.

Regarding `Cc1ccc(C)c(Cl)c1`, the lipophilicity (logP) turned out to be 3.86.

The compound `O=C(O)C[N+]1([O-])CCN(C(=O)Cn2c(=O)sc3ccc(Cl)cc32)CC1` registered a lipophilicity (logP) of 0.21.

As to `O=[N+]([O-])C=C1NCCN1Cc1ccc(Cl)nc1`, the lipophilicity (logP) is -0.19.

With `CCN(CC)CCSC(=NO)c1nc(C)no1`, the logP stood at 0.71.

As for `Cc1ccc(C)c(NN=C(C#N)C#N)c1`, the logP was 3.08.

In the case of `CN(C)C=Nc1ccn(C2CC(O)C(CO)O2)c(=O)n1` (centres undefined), the lipophilicity (logP) is -1.54.

The compound `CCCCOc1ccc(OCC(OC(=O)n2ccnc2)C(C)(C)C)cc1` (centres undefined) came in with a logP of 4.29.

In the case of `CCOC(=O)Cc1ccc(O)c2ncccc12`, the logP was found to be 2.26.

The compound `O=[N+]([O-])c1ncn[nH]1` returned a logP of -0.33.

In turn, `O=[N+]([O-])c1ncn(CC(F)(F)CO)n1` registered a logP of -0.21.

With `C[C@H](O)C(=O)Nc1c(I)c(C(=O)NC(CO)CO)c(I)c(C(=O)NC(CO)CO)c1I`, the logP is -2.42.

As to `CCOC(=O)C(C)Oc1ccc(Oc2cnc3cc(F)ccc3n2)cc1` (centres undefined), the log partition coefficient (logP) stood at 3.65.

Regarding `CC(C)CNCCCS(=O)(=O)c1ccc(S(N)(=O)=O)s1`, the logP is -0.35.

For the compound `CCCCCCOc1ccccc1NC(=O)OCCN1CCOCC1`, the log partition coefficient (logP) is 4.24.

Regarding `COc1ccccc1NC(=O)OCCN1CCOCC1`, the lipophilicity (logP) worked out at 1.73.

Regarding `CCSc1nc(NC(C)C)nc(NC(C)C)n1`, the log partition coefficient (logP) is 3.81.

The compound `Cc1ccc(Cl)c(OCC(O)CNC(C)(C)C)c1` (centres undefined) had a logP of 2.97.

`CC1CC2C3CCC4=CC(=O)C=CC4(C)C3(F)C(O)CC2(C)C1(O)C(=O)NC(CO)c1ccccc1` (centres undefined) had a lipophilicity (logP) of 2.89.

`c1ccc(Cn2cccc2)cc1`: the lipophilicity (logP) turned out to be 2.71.

Regarding `O=[N+]([O-])C=C1SCCN1Cc1ccc(Cl)nc1`, the logP was determined as 0.65.

As to `CCCCCOc1ccc(NC(=O)OCCN2CCOCC2)cc1`, the logP is 3.96.

For `CN(C)N=Nc1ccc(S(=O)(=O)CCO)cc1`, the log partition coefficient (logP) turned out to be 1.15.

In turn, `CC(C)CCNC(=O)C1(O)C(C)CC2C3CCC4=CC(=O)C=CC4(C)C3(F)C(O)CC21C` (centres undefined) had a logP of 3.74.

In the case of `C#CCOc1c(Cl)cc(NC=NOCC(=O)OCC)cc1Cl`, the lipophilicity (logP) is 3.6.

The compound `CC(C)CN1C(=O)C(=O)c2ccccc2C1=O` showed a logP of 2.08.

As for `CCOc1ncnc2c1ncn2C1OC(CO)CC1F` (centres undefined), the logP was found to be 0.8.

For the compound `COc1cccc(OC)c1-c1nc2ccncc2[nH]1`, the lipophilicity (logP) turned out to be 1.66.

`COc1ccc(OC)c(Cc2cnc(N)nc2N)c1` yielded a logP of 1.7.

As for `Cc1ccc(Cl)cc1O`, the logP amounted to 2.63.

`O=S1(=O)NC(C2CCCCC2)=Nc2ccccc21` had a log partition coefficient (logP) of 2.2.

The compound `Cc1cc(=O)oc2cc(OC3OC(CO)C(O)C(O)C3O)ccc12` (centres undefined) gave a log partition coefficient (logP) of -0.66.

In turn, `CCOC(CC)(OCC)OCC` yielded a lipophilicity (logP) of 1.97.

The compound `Clc1cc2c(cc1Cl)Oc1c(cc(Cl)c(Cl)c1Cl)O2` displayed a logP of 6.64.

As for `COC(=O)NCCn1c([N+](=O)[O-])cnc1C`, the lipophilicity (logP) came out at 0.02.

In the case of `C#CCOc1c(Cl)cc(NC=NOCC)cc1Cl`, the logP is 3.6.

Take `c1ccc([C@H]2CN3CCSC3=N2)cc1`: the logP amounted to 1.84.

As for `CCCNc1nc(C(Cl)(Cl)Cl)nc(C(Cl)(Cl)Cl)n1`, the logP is 4.09.

`O=C1CC(Sc2nc3ccccc3s2)N1` (centres undefined) displayed a lipophilicity (logP) of 2.3.

In the case of `Cc1ccc(-n2ccc(=O)c(O)c2C)cc1`, the logP came out at 1.72.

In turn, `CC(C)(C)c1ccc2c(c1)OCCOCCOCCOCCOCCO2` came in with a log partition coefficient (logP) of 1.71.

Turning to `CCCn1c(=O)c2nc(-c3ccccc3N)[nH]c2n(CCC)c1=O`, the logP stood at 3.54.

The compound `CC(=O)OC1(c2ccccc2)CCN(C)C(C)C1C` (centres undefined) gave a logP of 2.52.

As for `Cn1c([N+](=O)[O-])cnc1-c1ccc(N)cc1`, the log partition coefficient (logP) came to 1.06.

`CC1=C(/C=C/C(C)=C/C=C/C(C)=C/CO)C(C)(C)CCC1` displayed a logP of 5.68.

`CNCCN(C)S(=O)(=O)c1ccc(CONC(N)=O)c([N+](=O)[O-])c1` yielded a lipophilicity (logP) of 0.45.

Regarding `CCC(=O)C(CS(=O)(=O)c1ccc(C)cc1)c1ccc(Cl)cc1` (centres undefined), the logP was 3.43.

Regarding `CCC(C)C(NC(=O)C(CC(C)C)NC(C)=O)C(=O)NC(CCC(=O)O)C(N)=O` (stereo not drawn) (Ac-Leu-Ile-Glu-NH2; configuration not given here), the logP was 0.07.

On to `CCN1C(=O)C(=O)c2cc3ccccc3cc2C1=O`, for which the logP came to 2.47.

As to `CCCCCc1cc(CCCCN2CC(=O)c3ccccc3C2=O)c2c(c1)OC(C)(C)C1CC=C(C)CC21` (centres undefined), the log partition coefficient (logP) was determined as 9.07.

In the case of `Clc1ccc(Cl)c(-c2c(Cl)c(Cl)c(Cl)c(Cl)c2Cl)c1`, the logP was determined as 7.93.

The compound `CC1NC(=O)C(CC(=O)NC(Cc2cn(C(=O)OCc3ccccc3)c3ccccc23)C(=O)NC(Cc2ccccc2)C(=O)N(C)Cc2ccccc2)NC1=O` (centres undefined) came in with a logP of 5.66.

In turn, `CCOc1ccc(OCc2ccccc2CCCN2CCC(O)CC2)cc1` came in with a logP of 3.42.

With `COc1ccc(COC(C(=O)O)c2ccccc2)cc1Cl` (centres undefined), the log partition coefficient (logP) was found to be 2.45.

In turn, `O=C(O)CCC(S)CCS` (centres undefined) returned a logP of 1.4.

Turning to `CCCN(C=Nc1ccn(C2CC(O)C(CO)O2)c(=O)n1)CCC` (centres undefined), the log partition coefficient (logP) turned out to be 0.4.

Take `CC12CCC(=O)C=C1CCC1C2CCC2(C)C1CCC21CCC(=O)O1` (centres undefined): the lipophilicity (logP) was determined as 2.98.

On to `COc1nc(N)nc(C(Cl)(Cl)Cl)n1`, for which the lipophilicity (logP) came to 2.39.

The compound `CNC(=NC#N)Nc1cccc(-c2csc(N=C(N)N)n2)c1` registered a logP of 1.6.

`O=c1nc(N=CN2CCCCC2)ccn1C1OC(CO)C(O)C1O` (centres undefined): the logP was -0.66.

In turn, `CC(C)(C)N(NC(=O)c1ccccc1F)C(=O)c1ccccc1Cl` came in with a logP of 2.63.

For the origin of these results see the OPERA property sets (Mansouri et al. 2018).
